Experimental data from US9573901B2, “Crystal form of chidamide, preparation method and use thereof” (SHENZHEN CHIPSCREEN BIOSCIENCES, LTD., priority 2012, dated 2017).

Legend:
[1] = Stability test at high temperature, high humidity and strong light exposure; assay type: physicochemical; details: high temperature (60° C.), high humidity (90%±5%) and strong light exposure (4500 Lx±500 Lx)
Method: The stability of the chidamide crystal form A and the chidamide crystal form B described herein was tested at high temperature (60° C.), high humidity (90%±5%) and strong light exposure (4500 Lx±500 Lx). […] Both the chidamide crystal form A and the chidamide crystal form B are suitable for the manufacturing of drug products and long-term storage. The chidamide crystal form A and the chidamide crystal form B described herein have excellent performance in terms of oral absorption and inhibition of cell differentiation and proliferation. Additionally, both crystal forms have low toxicity and favorable storage and treatment stability, and can be used in the preparation of a medicament for treating cell differentiation and proliferation-related diseases. Thus, the present invention provides the use of the chidamide crystal form A and the chidamide crystal form B in the preparation of a medicament for treating cell differentiation and proliferation-related diseases.

[2] = Solubility; assay type: physicochemical

Nc1cc(F)ccc1NC(=O)c1ccc(CNC(=O)/C=C/c2cccnc2)cc1 [chidamide crystal form A, N-(2-amino-4-fluorophenyl)-4-(N-(3-pyridylacryloyl)aminomethyl)benzamide]
content and total impurity amount after stability test [1]: no significant change | crystal form after stability test [1]: keep the original crystal form | solubility [2]: favorable performance in terms of solubility
